Experimental data published in patent US20230381774A1, “MICROFLUDIC LAB-ON-CHIP DEVICE, MATRIX, SMALL MOLECULES AND THREE-DIMENSIONAL SPHEROIDS FOR CELL REPROGRAMMING” (The Regents of the University of California, priority 2022, published 2023).
Entries after “also recorded” stand apart in the source; their conditions may differ.

Assays:
[1] = tested on: BAM-transduced fibroblasts; test: iN reprogramming of BAM-transduced fibroblasts with cytoskeletal and adhesion inhibitors (TUBB3+ iN cells, 2 weeks); type: cell-based, mouse; details: Y-27632 20 μM, nocodazole 0.3 μM, cytochalasin D 1 μM, jasplakinolide 0.05 μM; U0126 various doses
Method: To examine whether these changes in cell stiffness, actin structure and expression of contractility-mediating genes were involved in iN reprogramming, we evaluated the effects of disrupting the cytoskeleton using small molecule inhibitors. For these experiments, BAM-transduced fibroblasts were reprogrammed as in FIG. 1A and chemical compounds known to perturb the cytoskeleton were added to the culture medium on day 1 to evaluate their effects on the reprogramming process. […] The reprogramming efficiency was determined as the percentage of TUBB3*-iN cells normalized to the number of cells plated at 24 hours post-seeding (i.e., day 0). First, we tested whether disruption of cytoskeletal contractility could influence the direct reprogramming of fibroblasts into neurons using blebbistatin, a non-muscle myosin II inhibitor^22-24. We observed that iN cells could be derived in the absence and presence of blebbistatin (FIG. 3A). […] In particular, treatment with 10 μM blebbistatin generated the highest number of iN cells and increased the reprogramming efficiency by approximately 4.5-fold compared to the control, therefore, this concentration was used in all subsequent experiments. […] As Ascl1 has been identified as a pioneer factor for iN reprogramming and transduction of Ascl1 alone is sufficient to generate iN cells^25,26, we further investigated whether blebbistatin could influence iN conversion by Ascl1 induction.
After transduction, mouse fibroblasts were seeded onto multi-well tissue culture-treated polystyrene dishes (Falcon) coated with laminin (0.1 mg/ml, Corning) at 4,000 cells per cm^2. Twenty-four hours after seeding, the medium was replaced to MEF medium containing doxycycline (2 μg/ml, Sigma). The following day (i.e., day 1) the medium was changed to N3 medium (DMEM/F12 [GIBCO]+N2 supplement [Invitrogen]+B27 supplement [Invitrogen]+1% penicillin/streptomycin [Gibco]+ doxycycline [2 μg/ml, Sigma]) and the cultures were maintained in this medium for the duration of the experiments. For Ascl1-only reprogramming, N3 medium was further supplemented with BDNF (5 ng/ml, R&D systems) and GDNF (5 ng/ml, R&D systems) after day 7. For cytoskeletal and cell adhesion disruptions, Blebbistatin (Millipore), Y-27632 (20 μM; Cayman Chemical), Nocodazole (0.3 μM; Sigma), Cytochalasin D (1 μM; Sigma), Jasplakinolide (0.05 μM; Cayman Chemical) and PF573228 (Sigma) were administered in N3 medium on day 1 and for the first 7 days of reprogramming (unless stated otherwise) and used at the indicated concentrations. Culture medium was replenished every 2 days during reprogramming to maintain the activity of the small molecules. After culturing for the desired length (14 days for BAM and 21 days for Ascl1 only), the induced neuronal (iN) cells were analyzed and the reprogramming efficiency was determined.
The reprogramming efficiency was determined by as the percentage of TUBB3^+ iN cells in each condition normalized to the number of cells plated at 24 hours post-seeding. Epifluorescence images were collected using a Zeiss Axio Observer.D1, Zeiss Axio Observer.Z1, and ImageXpress Micro XLS System (Molecular Devices), whereas confocal images were acquired using a Zeiss LSM710 microscope and Leica SP8 Confocal Laser Scanning microscope.

histone marks = test: Immunofluorescence of histone marks in non-transduced fibroblasts; type: cell-based, mouse; details: for euchromatin marks (AcH3, H3K4me3, H3K4me1): global, 10 μM blebbistatin or 5 μM PF573228, 2 hours, vs control; for histone trends compared with blebbistatin: other cytoskeletal compounds
Method: For immunostaining, cells were fixed with 4% paraformaldehyde (Electron Microscopy Sciences), permeabilized with 0.5% Triton-X-100 (Sigma), and blocked with 5% donkey serum (Jackson Immunoresearch) in phosphate buffered saline (PBS). For actin-cytoskeleton staining, samples were incubated with fluorescein isothiocyanate-conjugated phalloidin (Invitrogen) for 1 hour. Primary antibodies were incubated for 1 hour at room temperature or overnight at 4° C., followed by 1-hour incubation with Alexa 488 and/or Alexa 546-labeled secondary antibodies (Molecular Probes). Nuclei were stained with 4,6-diamino-2-phenylindole (DAPI) (Invitrogen).
Quantification of histone intensity per nuclei was performed using an ImageJ macro. DAPI-stained nuclei were segmented using gaussian blur, thresholding, watershed, and analyze particle functions to identify individual nuclei. This mask was applied to the corresponding stained fluorescence channel to quantify the average fluorescence intensity within each nucleus.

[2] = tested on: BAM-transduced fibroblasts; test: iN reprogramming of BAM-transduced fibroblasts with chemical/siRNA treatment and microfluidic squeezing (Tuj1 staining, day 7); type: cell-based, mouse; details: for iN reprogramming efficiency: agent alone without squeezing, vs control, Bix01294 1 μM, JIB-04 100 nM, Decitabine 0.5 μM, 24 hours; for increase of iN conversion: alone, at its optimal concentration; for nuclear deformation-induced iN reprogramming efficiency: pre-treatment followed by squeezing in 7-μm microchannels, vs squeezed-only group
Method: Fibroblasts were isolated from ear tissues of adult (1 month-old) C57BL/6 mice, Tau-EGFP reporter mice (Jackson Laboratory, 004779) and R26-M2rtTA;Col1a1-tetO-H2B-GFP compound mutant mice (Jackson Laboratory, 016836), and expanded in fibroblast medium: DMEM (Gibco, 11965), 10% fetal bovine serum (FBS; Gibco, 26140079) and 1% penicillin/streptomycin (GIBCO, 15140122). For all experiments, passage-2 cells were used and synchronized upon reaching 80% confluency using DMEM with 1% FBS for 24 hours before the transduction with viruses containing BAM constructs. The following day (day 0) the medium was changed to mouse embryonic fibroblasts (MEF) medium containing doxycycline (2 ng/ml, Sigma) to initiate the expression of the transgenes and thus, reprogramming. After 6 hours, transduced fibroblasts were passaged, and either subjected to microfluidic deformation using microchannels of various widths. Cells were then seeded onto glass slides coated with 0.1 mg/mL fibronectin (ThermoFisher, 33016015) overnight at a density of 3,000 cells/cm^2. Twenty-four hours later (day 1), cells were cultured in N2B27 medium: DMEM/F12 (Gibco, 11320033), N-2 supplement (Gibco, 17502048), B-27 supplement (Gibco, 17504044), 1% penicillin/streptomycin, and doxycycline (2 ng/ml), and half medium changes were performed every 2 days. On day 7 after microfluidic deformation, cells were fixed and stained for Tuj1 to determine the reprogramming efficiency. iN cells were identified based on positive Tuj1 staining and a neuronal morphology. The reprogramming efficiency was determined as the percentage of iN cells on day 7 relative to the number of the cells initially seeded. For long-term studies where maturation and functionality of the iN cells were examined, cells were kept in culture for 5 weeks. Reprogramming of iPSC from wild-type fibroblasts was performed as described previously^18.
To determine the role of H3K9 methylation in microfluidic device-induced iN reprogramming, BAM-transduced fibroblasts were treated with the H3K9 methyltransferase inhibitor Bix-01294 (Cayman chemical, 13124) or demethylase inhibitor JIB-04 (Cayman chemical, 15338) at the indicated concentrations for 24 hours prior to introduction into the microdevice. Parallel conditions with DMSO served as a control. The iN reprogramming efficiency was determined via Tuj1 staining 7 days after squeezing.
To determine the involvement of ion channels in microfluidic device-induced iN reprogramming, calcium channel blocker Amlodipine (Cayman chemical, 14838), potassium channel blocker Quinine (Cayman chemical, 23958) and sodium channel blocker procainamide (Cayman chemical, 24359) were used to inhibit calcium, potassium, and sodium ion channels, respectively. BAM-transduced fibroblasts were treated with small molecule blockers at the indicated concentrations for 12 hours prior to being introduced into the microfluidic device. Parallel conditions with DMSO served as a control. The iN reprogramming efficiency was determined via Tuj1 staining 7 days after squeezing.

H3K9me3 = H3K9me3 level in fibroblasts (immunostaining); type: cell-based, mouse; details: for H3K9me3 level: agent alone
Method: Samples collected for immunofluorescence staining at the indicated time points were washed once with PBS and fixed in 4% paraformaldehyde for 15 minutes. Samples were washed three times with PBS for 5 minutes each and permeabilized using 0.5% Triton X-100 for 10 minutes. After three subsequent PBS washes, samples were blocked with 5% normal donkey serum (NDS; Jackson Immunoresearch, 017000121) in PBS for 1 hour. Samples were incubated with primary antibodies (Supplementary Table S1 in Song et al.) in antibody dilution buffer (1% normal donkey serum (NDS)+0.1% Triton X-100 in PBS) for either 1 hour or overnight at 4° C. followed by three PBS washes and a 1-hour incubation with Alexa Fluor® 488- and/or Alexa Fluor® 546-conjugated secondary antibodies (Molecular Probes). Nuclei were stained with DAPI in PBS for 10 minutes. Epifluorescence images were collected using a Zeiss Axio Observer Z1 inverted fluorescence microscope and analyzed using ImageJ. Confocal images were collected using a Leica SP8-STED/FLIM/FCS Confocal and analyzed using ImageJ.
Average lamin and histone marker intensities per nuclei were quantified using an ImageJ macro. Gaussian blur, thresholding, watershed, and analyze particle functions were applied to the DAPI channel to create individual selections for each nucleus. This mask was applied to the corresponding stain image to measure the average fluorescence intensity within each nucleus.

[3] = tested on: primary human neonatal dermal fibroblasts (hNDFs); test: Spatial iN reprogramming in 3D spheroids (Tuj1 staining); type: cell-based; details: 3 days of reprogramming, relative to no-treatment controls
Text: For the reduction to practice, primary human neonatal dermal fibroblasts (hNDFs) were transduced with doxycycline (Dox)-inducible lentiviral vectors for the BAMN factors. After Dox induction in monolayer to ensure unbiased activation of the transgenes, hNDFs were either plated onto Matrigel-coated cover slips as 2D controls or centrifuged in microwells to form 3D aggregates, or “spheroids” (FIG. 9A). The expression of neuron-specific β-tubulin III (Tuj1) was used as a marker of neuronal fate, as is convention. Tuj1 expression began earlier in spheroids than in 2D culture, appearing as early as day 2 (two days after Dox induction and one day after spheroid formation) (FIG. 9BC). To evaluate relative reprogramming efficiency, spheroids were replated onto Matrigel-coated cover slips after three days without enzymatic disaggregation.
Direct reprogramming involves both disruption of the existing regulatory network (generally early on) and establishment of another. The initial nonspecific disruption is often mechanistically associated with cell cycle regulation, cell senescence, chromatin inactivation, and genome stability. To assess the impact of mechanobiological changes associated with spheroid culture on direct reprogramming, primary human neonatal dermal fibroblasts (hNDFs) were transduced with doxycycline (dox)-inducible lentiviral vectors for the BAMN factors. […]

Q: With COC(=O)Nc1nc2ccc(C(=O)c3cccs3)cc2[nH]1 [nocodazole] as the compound, how does the “reprogramming efficiency relative to control” value [1] read?
A: resulted in a reduction in the reprogramming efficiency; also recorded: inhibiting iN conversion

Q: What about the “euchromatin marks (AcH3, H3K4me3, H3K4me1)” value (histone marks) of the same compound?
A: decreasing euchromatin marks (e.g., AcH3)

Q: What about the “histone trends compared with blebbistatin” value (histone marks) of the same compound?
A: no other cytoskeletal disrupting compounds

Q: Which results are given for C/C1=C\[C@H](C)C[C@H](C)OC(=O)C[C@H](c2ccc(O)cc2)NC(=O)[C@@H](Cc2c(Br)[nH]c3ccccc23)N(C)C(=O)[C@H](C)NC(=O)[C@@H](C)C1 [jasplakinolide]?
A: reprogramming efficiency relative to control [1]: reduced the reprogramming efficiency relative to control; also recorded: inhibiting iN conversion; euchromatin marks (AcH3, H3K4me3, H3K4me1) (histone marks): decreasing euchromatin marks (e.g., AcH3); histone trends compared with blebbistatin (histone marks): no other cytoskeletal disrupting compounds

Q: Which results are given for COc1cc2nc(N3CCCN(C)CC3)nc(NC3CCN(Cc4ccccc4)CC3)c2cc1OC [Bix01294]?
A: iN reprogramming efficiency [2]: partially mimicked the squeezing effect on the reprogramming efficiency; increase of iN conversion [2]: about 2 fold; nuclear deformation-induced iN reprogramming efficiency [2]: slightly increased the reprogramming efficiency compared to the squeezed-only group; H3K9me3 level (H3K9me3): specifically suppressed H3K9me3 in a dose-dependent manner

Q: Nc1ncn([C@H]2C[C@H](O)[C@@H](CO)O2)c(=O)n1 [Decitabine] was tested. Which “increase of iN conversion” value [2] did it give?
A: about 2 fold

Q: How did the “reprogramming efficiency relative to control” value [1] turn out when C[C@@H](N)[C@H]1CC[C@H](C(=O)Nc2ccncc2)CC1 [Y-27632] was run?
A: increased the yield of iN cells similar to blebbistatin, although to a lesser degree

Q: How did the iN reprogramming efficiency [2] turn out when Clc1ccc(N/N=C(\c2ccccc2)c2ccccn2)nc1 [JIB-04] was run?
A: reduced the reprogramming efficiency compared to the control

Q: What about the “nuclear deformation-induced iN reprogramming efficiency” value [2] of the same compound?
A: strikingly suppressed nuclear deformation-induced iN reprogramming

Q: And the H3K9me3 level (H3K9me3)?
A: significantly increased H3K9me3

Q: And the “decrease of H3K9me3 by squeezing” value (H3K9me3; pre-treated for 24 hours, then 7-μm channels)?
A: much less than the group without JIB-04 treatment

Q: For C=C1[C@@H](C)[C@H]2[C@H](Cc3ccccc3)NC(=O)[C@]23[C@H](OC(C)=O)/C=C/[C@@](C)(O)C(=O)[C@@H](C)C/C=C/[C@H]3[C@@H]1O [cytochalasin D], which “reprogramming efficiency relative to control” value [1] is on record?
A: reduced the reprogramming efficiency relative to control; also recorded: inhibiting iN conversion

Q: What about the “euchromatin marks (AcH3, H3K4me3, H3K4me1)” value (histone marks) of the same compound?
A: decreasing euchromatin marks (e.g., AcH3)

Q: And the “histone trends compared with blebbistatin” value (histone marks)?
A: no other cytoskeletal disrupting compounds

Q: Which iN reprogramming efficiency [2] does the source give for CCCC(CCC)C(=O)O [valproic acid] here?
A: slightly increased iN reprogramming efficiency

Q: What about the “nuclear deformation-induced iN reprogramming efficiency” value [2] of the same compound?
A: additive to mechanical squeezing

Q: Which “spatial Tuj1+ reprogramming patterns, inhibitor alone” value [3] does the source give for Cc1cccc(-c2nn(C(=S)Nc3ccccc3)cc2-c2ccnc3ccccc23)n1 [A83-01] here?
A: did not affect spatial Tuj1+ reprogramming patterns

Q: With COc1cc(-c2cc(-c3cccc(O)c3)cnc2N)cc(OC)c1OC [K02288] as the compound, how does the “spatial Tuj1+ reprogramming patterns, inhibitor alone” value [3] read?
A: did not affect spatial Tuj1+ reprogramming patterns

Q: Which “reprogramming efficiency relative to control” value [1] does the source give for N#CC(=C(/N)Sc1ccccc1N)/C(C#N)=C(\N)Sc1ccccc1N [U0126] here?
A: not significantly altered
